Experimental data as given in patent US8722849B2, “Polypeptides” (Novo Nordisk A/S, priority 2011, dated 2014).
Starred links: 1 amine or outer side, 2 acyl side, 3 side chain; linkers in the order of their positions; H or OH if unused. Positions of bridges follow the written chain, without caps; N, C: chain ends. Residues, ends and D or L forms follow the SMILES beside them. *: point of attachment. C20 diacid = O=C(O)CCCCCCCCCCCCCCCCCCC(=O)*; C18 diacid = O=C(O)CCCCCCCCCCCCCCCCC(=O)*; γGlu = O=C(O)[C@H](CCC(=O)[*:2])N[*:1]

Key:
[1] = target: T1, human amylin receptor (amylin 3(a) receptor: human calcitonin receptor + RAMP-3) (Homo sapiens, UniProt O60896+P30988); experiment: Assay (II)a functional CRE-luciferase assay, human amylin receptor; type: cell-based; conditions: Table 2; BHK amylin 3(a)-receptor/CRE-luc cells
T1 construct: expressed in transfected cells; host or cells: BHK570
T1 sequence (P30988 25-474): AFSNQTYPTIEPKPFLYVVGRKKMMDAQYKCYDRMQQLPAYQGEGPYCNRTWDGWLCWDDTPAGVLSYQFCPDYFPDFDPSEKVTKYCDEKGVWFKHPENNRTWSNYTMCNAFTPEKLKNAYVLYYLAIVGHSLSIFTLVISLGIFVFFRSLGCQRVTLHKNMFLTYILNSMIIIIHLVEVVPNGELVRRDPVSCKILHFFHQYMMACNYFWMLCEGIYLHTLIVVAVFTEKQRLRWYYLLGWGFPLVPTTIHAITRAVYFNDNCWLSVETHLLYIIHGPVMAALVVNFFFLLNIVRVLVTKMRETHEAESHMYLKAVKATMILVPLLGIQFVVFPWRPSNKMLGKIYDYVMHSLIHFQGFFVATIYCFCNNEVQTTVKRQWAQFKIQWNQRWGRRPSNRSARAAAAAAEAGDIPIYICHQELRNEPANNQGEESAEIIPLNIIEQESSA
T1 sequence (O60896 24-148 partner): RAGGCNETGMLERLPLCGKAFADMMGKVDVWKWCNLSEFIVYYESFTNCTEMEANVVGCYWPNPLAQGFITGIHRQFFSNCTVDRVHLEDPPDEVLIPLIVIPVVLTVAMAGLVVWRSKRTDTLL

[2] = Assay (III) ThT fibrillation assay for physical stability; type: physicochemical
In short: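 Freshly prepared formulations, pH-adjusted, with 1 μM ThT; four or eight replicates incubated at 37 °C under 960 rpm orbital shaking. Fluorescence (ex 444/em 485 nm) read every 20 min; […]. Peptide concentration measured by RP-HPLC before and after the run.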

EC50 [1] [nM]	ThT pH 4.0 lag time ([2]; ThT fibrillation assay) [h]	ThT pH 4.0 lag time (h) ([2]; ThT fibrillation assay)	ThT pH 4.0 lag time ([2]; Table 8) [h]	SMILES
0.121	>45	>45		CC[C@H](C)[C@H](NC(=O)[C@@H]1CCCN1C(=O)CNC(=O)[C@H](Cc1ccccc1)NC(=O)[C@H](CC(N)=O)NC(=O)[C@H](CC(N)=O)NC(=O)[C@H](CO)NC(=O)[C@H](CO)NC(=O)[C@H](Cc1c[nH]cn1)NC(=O)[C@H](Cc1c[nH]cn1)NC(=O)[C@H](CC(C)C)NC(=O)[C@H](Cc1ccccc1)NC(=O)[C@H](CCC(=O)O)NC(=O)[C@H](C)NC(=O)[C@H](CC(C)C)NC(=O)[C@H](CCCNC(=N)N)NC(=O)[C@H](CCC(N)=O)NC(=O)[C@@H](NC(=O)[C@H](C)NC(=O)[C@@H]1CSSC[C@H](NC(=O)[C@H](Cc2c[nH]cn2)NC(=O)CC[C@H](NC(=O)CCCCCCCCCCCCCCCCCCC(=O)O)C(=O)O)C(=O)N[C@@H](CC(N)=O)C(=O)N[C@@H]([C@@H](C)O)C(=O)N[C@@H](C)C(=O)N[C@@H]([C@@H](C)O)C(=O)N1)[C@@H](C)O)C(=O)N[C@@H](CC(C)C)C(=O)N1CCC[C@H]1C(=O)N1CCC[C@H]1C(=O)N[C@H](C(=O)N[C@@H](CC(N)=O)C(=O)N[C@H](C(=O)NCC(=O)N[C@@H](CO)C(=O)N[C@@H](Cc1c[nH]cn1)C(=O)N[C@H](C(=O)N[C@@H](Cc1ccc(O)cc1)C(N)=O)[C@@H](C)O)C(C)C)[C@@H](C)O [Example 76, N-alpha-[(S)-4-Carboxy-4-(19-carboxynonadecanoylamino)butyryl]-[His1,Glu14,His17,His35]-pramlintide] ({C20 diacid-γGlu}-HCNTATCATQRLAEFLHHSSNNFGPILPPTNVGSHTY-NH2; disulfide 2-7 (inferred); C-terminus assumed)
0.0795	>45	>45		CC[C@H](C)[C@H](NC(=O)[C@@H]1CCCN1C(=O)CNC(=O)[C@H](Cc1ccccc1)NC(=O)[C@H](CC(N)=O)NC(=O)[C@H](CC(N)=O)NC(=O)[C@H](CO)NC(=O)[C@H](CO)NC(=O)[C@H](Cc1c[nH]cn1)NC(=O)[C@H](CCCNC(=N)N)NC(=O)[C@H](CC(C)C)NC(=O)[C@H](Cc1ccccc1)NC(=O)[C@H](CCC(=O)O)NC(=O)[C@H](C)NC(=O)[C@H](CC(C)C)NC(=O)[C@H](CCCNC(=N)N)NC(=O)[C@H](CCC(N)=O)NC(=O)[C@@H](NC(=O)[C@H](C)NC(=O)[C@@H]1CSSC[C@H](NC(=O)[C@H](CCCCN)NC(=O)[C@H](Cc2c[nH]cn2)NC(=O)CC[C@H](NC(=O)CCCCCCCCCCCCCCCCC(=O)O)C(=O)O)C(=O)N[C@@H](CC(N)=O)C(=O)N[C@@H]([C@@H](C)O)C(=O)N[C@@H](C)C(=O)N[C@@H]([C@@H](C)O)C(=O)N1)[C@@H](C)O)C(=O)N[C@@H](CC(C)C)C(=O)N1CCC[C@H]1C(=O)N1CCC[C@H]1C(=O)N[C@H](C(=O)N[C@@H](CC(N)=O)C(=O)N[C@H](C(=O)NCC(=O)N[C@@H](CO)C(=O)N[C@@H](Cc1c[nH]cn1)C(=O)N[C@H](C(=O)N[C@@H](Cc1ccc(O)cc1)C(N)=O)[C@@H](C)O)C(C)C)[C@@H](C)O [Example 71, N-alpha-[(S)-4-Carboxy-4-(17-carboxyheptadecanoylamino)butyryl]-His-[Glu14,Arg17,His35]-pramlintide] ({C18 diacid-γGlu}-HKCNTATCATQRLAEFLRHSSNNFGPILPPTNVGSHTY-NH2; disulfide 3-8 (inferred); C-terminus assumed)
0.172	30	30	30	CC[C@H](C)[C@H](NC(=O)[C@@H]1CCCN1C(=O)CNC(=O)[C@H](Cc1ccccc1)NC(=O)[C@H](CC(N)=O)NC(=O)[C@H](CC(N)=O)NC(=O)[C@H](CO)NC(=O)[C@H](CO)NC(=O)[C@H](Cc1c[nH]cn1)NC(=O)[C@H](CCCNC(=N)N)NC(=O)[C@H](CC(C)C)NC(=O)[C@H](Cc1ccccc1)NC(=O)[C@H](CCC(=O)O)NC(=O)[C@H](C)NC(=O)[C@H](CC(C)C)NC(=O)[C@H](CCCNC(=N)N)NC(=O)[C@H](CCC(N)=O)NC(=O)[C@@H](NC(=O)[C@H](C)NC(=O)[C@@H]1CSSC[C@H](NC(=O)[C@H](CCCCN)NC(=O)[C@H](CCC(=O)O)NC(=O)CC[C@H](NC(=O)CCCCCCCCCCCCCCCCC(=O)O)C(=O)O)C(=O)N[C@@H](CC(N)=O)C(=O)N[C@@H]([C@@H](C)O)C(=O)N[C@@H](C)C(=O)N[C@@H]([C@@H](C)O)C(=O)N1)[C@@H](C)O)C(=O)N[C@@H](CC(C)C)C(=O)N1CCC[C@H]1C(=O)N1CCC[C@H]1C(=O)N[C@H](C(=O)N[C@@H](CC(N)=O)C(=O)N[C@H](C(=O)NCC(=O)N[C@@H](CO)C(=O)N[C@@H](Cc1c[nH]cn1)C(=O)N[C@H](C(=O)N[C@@H](Cc1ccc(O)cc1)C(N)=O)[C@@H](C)O)C(C)C)[C@@H](C)O [Example 62, N-alpha-[(S)-4-Carboxy-4-(17-carboxyheptadecanoylamino)butyryl]-Glu-[Glu14,Arg17,His35]-pramlintide] ({C18 diacid-γGlu}-EKCNTATCATQRLAEFLRHSSNNFGPILPPTNVGSHTY-NH2; disulfide 3-8 (inferred); C-terminus assumed)
